Where a SMILES comes first, the peptide text is derived from it.
Columns and labels:
horse red blood cells = assay: Haemolysis assay and therapeutic index; conditions: 2% horse red blood cells in PBS, 2 h, 37 °C, absorbance 570 nm; best-fitted curve
Description: The haemolytic activity of synthetic peptides was determined using the horse red blood cells that were extracted from the de-fibroblast whole horse blood (TCS Biosciences Ltd. Buckingham, UK). […] Briefly, the red blood cells were harvested and washed using PBS until all broken red blood cells were removed. Then, a 2% cell suspension was prepared using PBS. The peptide concentrations were set as antimicrobial activity assay and mixed with the red blood cells in the microcentrifuge tubes. After a 2 h-incubation at 37 °C, the tubes were centrifuged and the suspension was transferred into a clear 96 well plate. The absorbance of released haemoglobin in the suspension was detected at 570 nm by a plate reader. Besides, the red blood cells treated with PBS and 1% Triton X-100 were used as the negative and positive controls, respectively. […] The therapeutic index (TI) was further determined as below:(1) TI=HC50/product of n MICsn,

[1] = system: Methicillin-resistant Staphylococcus aureus (MRSA, ATCC 12493); assay type: cell-based
Description: (§1) The minimal inhibitory concentrations (MICs) and minimum bactericidal concentrations (MBCs) were evaluated to determine the antimicrobial activity of synthetic peptides. The microorganisms employed in the study are two kinds of Gram-negative bacteria, Escherichia coli (NCTC 10418) and Pseudomonas aeruginosa (ATCC 27853), three kinds of Gram-positive bacteria, Staphylococcus aureus (NCTC 10788), Methicillin-resistant Staphylococcus aureus (MRSA, ATCC 12493) and Enterococcus faecalis (NCTC 12697) and a yeast, Candida albicans (NCPF 1467), as indicated previously. […] The sterilised broth medium was used as the positive control and the microorganism cultured in the medium only was treated as the negative control. […] The MBC results were defined as the lowest bactericidal concentrations of peptide. The antimicrobial activity of peptides was tested by monitoring the absorbance at 550 nm using an ELISA plate reader (Biolise BioTek EL808, Winooski, VT, USA).

[2] = system: Candida albicans (NCPF 1467); assay type: cell-based
Description: as §1

[3] = system: Escherichia coli (NCTC 10418); assay type: cell-based
Description: as §1

[4] = system: Enterococcus faecalis (NCTC 12697); assay type: cell-based
Description: as §1

[5] = system: Pseudomonas aeruginosa (ATCC 27853); assay type: cell-based
Description: as §1

[6] = system: Staphylococcus aureus (NCTC 10788); assay type: cell-based
Description: as §1

CC[C@H](C)[C@H](NC(=O)[C@H](CCCCN)NC(=O)[C@@H]1CCCN1C(=O)[C@H](CC(C)C)NC(=O)[C@@H](N)Cc1ccccc1)C(=O)N[C@@H](CC(C)C)C(=O)N[C@@H](CCCCN)C(=O)N[C@H](C(=O)N[C@@H](C)C(=O)N[C@@H](C)C(=O)N[C@@H](CCCCN)C(N)=O)C(C)C [OSc] (H-FLPKILKVAAK-NH2)
256 µM: MIC ([2]; NCPF 1467, 24 h) | MIC ([6]; NCTC 10788, 24 h)
> 512 µM: MBC ([1]; ATCC 12493, 18 h) | MIC ([1]; ATCC 12493, 24 h) | MBC ([2]; NCPF 1467, 18 h) | MBC ([3]; NCTC 10418, 18 h) | MIC ([3]; NCTC 10418, 24 h) | MBC ([4]; NCTC 12697, 18 h) | MIC ([4]; NCTC 12697, 24 h) | MBC ([5]; ATCC 27853, 18 h) | MIC ([5]; ATCC 27853, 24 h) | MBC ([6]; NCTC 10788, 18 h)
>512 µM: HC50 (concentration causing 50% haemolysis of the red blood cells) (horse red blood cells)

Source: article PMC7472354, “Enhanced Antimicrobial Activity of N-Terminal Derivatives of a Novel Brevinin-1 Peptide from The Skin Secretion of Odorrana schmackeri” (Toxins, 2020)
